Measured values reported in patent US11203601B2, “Tricyclic compounds as glycogen synthase kinase 3 (GSK3) inhibitors and uses thereof” (The Broad Institute, Inc., priority 2017, dated 2021).
In brackets after ≈: the same amount, converted by molar mass. Where two headings read alike, the source gives them in different places.

Legend:
[1] = target: GSK3β (Homo sapiens (Human), UniProt P49841); assay: GSK3 beta biochemical assay (TR-FRET); conditions: GSK3β TR-FRET BIOCHEMICAL (TR-FRET) GMean IC50, 2 μM ATP (Km), 100 min at room temperature
Procedure: (§6) 1 nM enzyme, 200 nM biotinylated peptide
(§7) 4 μM ATP (GSK3 alpha) or 2 μM ATP (GSK3 beta)
(§8) The reaction volume is 10 μL, and the final percent DMSO is 1%. The total volume of DMSO is therefore 100 nL. It is critical that the percentage of DMSO be controlled and consistent across the plate. […] The High control is with all assay components but no inhibitor, the low control is with all assay components but no enzyme.
(§9) Make 2× detection reagents in Invitrogen TR-FRET detection buffer for final 20 nM Strepavidin-d2, 1 nM Tb^2+-pSer641 antibody (using 20 μl as final volume). 2× detection=40 nM Strepavidin-d2, 2 nM Tb^2+-pSer641 antibody.
(§10) XLFit is used for results which are archived into a database. The data is normalized as a percentage of uninhibited control minus max inhibited controls.

[2] = target: GSK3α (Homo sapiens (Human), UniProt P49840); assay: GSK3 alpha biochemical assay (TR-FRET); conditions: GSK3α TR-FRET BIOCHEMICAL (TR-FRET) GMean IC50, 4 μM ATP (Km), 100 min at room temperature
Procedure: as §6, §7, §8, §9, §10

[3] = test system: MDR1; assay: Additional MDCK permeability (MDR1-MDCK) assay (Example 6); type: in vitro ADME; conditions: dog
Excerpt: The MDR1/MDCK assay is run at Absorption Systems. This assay is used to determine the blood-brain barrier (BBB) penetration potential of a test compound using MDR1-MDCK cell monolayers.
Assay System • Confluent monolayers of MDR1-MDCK cells, 7 to 11 days old. Assay Conditions • Receiver well with 1% BSA in modified Hanks buffer (HBSSg) • Apical and basolateral side at pH 7.4 • Dose two monolayers in each direction (N=2) • Dose apical side for (A to B) assessment • Dose basolateral side for (B to A) assessment • Sample both apical and basolateral sides at 120 minutes • Determine the concentrations of test compound using a generic LC-MS/MS method with a minimum 4 point calibration curve. Assay QC • The quality of the cell monolayer batch is verified using control compounds before monolayers are released for use • The quality of each monolayer used in the assay is verified by a TEER measurement and by calculating the Papp for a control compound.

[4] = test system: Δ7 SMA KO mouse model of SMA; conditions: transgenic Δ7 SMA KO mouse model; cited from earlier work
[5] = test system: SMA patient-derived fibroblast cells; conditions: Western blot; cited from earlier work
[6] = test system: oxidative stress-induced neurodegeneration; conditions: cited from earlier work
[7] = test system: GSK3; conditions: cited from earlier work
[8] = Plasma stability, mouse; type: in vitro ADME, mouse (CD-1)
Procedure: (§1) Stability of compound in plasma was tested in duplicate by incubating compound at 5 μM for 5 hours at 37° C. Compound level at 5 hours was compared to level at 0 hours, and percent remaining was calculated. Binding to plasma proteins was tested in duplicate by incubating compound in plasma at 5 μM for 5 hours at 37° C. in the Rapid Equilibrium Dialysis (RED) Device. Compound level in plasma compartment was compared to compound level in buffer compartment to calculate percent bound. Order by selecting Plasma Stability and Plasma Protein Binding in Prometheus, checking boxes for desired species.
(§2) Available species: human, mouse (CD-1), and rat (Sprague-Dawley). Compound requirements: 15 μL of a 10 mM DMSO solution. Incubation time: 5 hours at 37° C. Test Concentration: 5 μM.

[9] = Liver microsomal stability, mouse; type: in vitro ADME, mouse (CD-1)
Procedure: (§3) Stability of compound in liver microsomes was tested in duplicate by incubating compound at 1 μM for 60 minutes at 37° C. Compound level at 60 minutes was compared to level at 0 minutes, and percent remaining was calculated. Order by selecting Microsomal Stability in Prometheus, checking boxes for desired species.
(§4) Available species: human, mouse (CD-1), and rat (Sprague-Dawley). Compound requirements: 5 μL of a 10 mM DMSO solution. Incubation time: 60 minutes at 37° C. Test Concentration: 1 μM.
(§5) Microsomes with NADPH without compound-matrix interference. Microsomes plus compound without NADPH-non-enzymatic instability.

[10] = Plasma stability, human; type: in vitro ADME
Procedure: as §1, §2

[11] = Plasma protein binding (RED), human; type: in vitro ADME; conditions: 5 hours at 37° C., read-out: Plasma Protein Binding (Human, % bound) (converted)
Procedure: as §1, §2

[12] = Plasma protein binding (RED), mouse; type: in vitro ADME, mouse (CD-1); conditions: CD-1, 5 hours at 37° C., read-out: Plasma Protein Binding (Mouse, % bound) (converted)
[13] = Liver microsomal stability, human; type: in vitro ADME
Procedure: as §3, §4, §5

[14] = Solubility in PBS; conditions: 23 °C, aqueous buffer, thermodynamic from solid
Procedure: (§11) Solubility of compound was tested in triplicate by diluting a 10 mM DMSO solution with PBS. Maximum concentration of compound in solution was 100 μM.
(§12) Solubility of compound was tested in triplicate by drying down a 10 mM DMSO solution and then attempting to reconstitute in 100% PBS. Maximum concentration of compound in solution was 500 μM.
(§13) Compound requirements (1% DMSO in PBS): 30 μL of a 10 mM DMSO solution. Compound requirements (PBS-only): 60 μL of a 10 mM DMSO solution. Equilibration time: 18 hours at room temperature.

[15] = physchem; conditions: 23 °C, aqueous buffer, thermodynamic from solid
Procedure: as §11, §12, §13

[16] = mouse plasma, 5 μM, 5 hours at 37° C.
[17] = human plasma, 5 μM, 5 hours at 37° C.

Sequence of GSK3β (P49841 whole entry): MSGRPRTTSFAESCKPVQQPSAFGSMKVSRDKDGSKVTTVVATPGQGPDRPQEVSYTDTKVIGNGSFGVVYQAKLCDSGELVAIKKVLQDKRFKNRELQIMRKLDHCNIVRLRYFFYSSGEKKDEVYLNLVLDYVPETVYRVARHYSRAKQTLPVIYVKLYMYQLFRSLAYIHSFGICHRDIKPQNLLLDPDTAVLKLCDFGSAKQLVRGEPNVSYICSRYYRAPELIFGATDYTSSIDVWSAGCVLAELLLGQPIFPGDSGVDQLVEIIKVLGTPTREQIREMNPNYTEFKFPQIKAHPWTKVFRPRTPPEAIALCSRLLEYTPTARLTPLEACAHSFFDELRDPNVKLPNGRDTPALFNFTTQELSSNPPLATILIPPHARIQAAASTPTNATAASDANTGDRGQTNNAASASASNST
Sequence of GSK3α (P49840 whole entry): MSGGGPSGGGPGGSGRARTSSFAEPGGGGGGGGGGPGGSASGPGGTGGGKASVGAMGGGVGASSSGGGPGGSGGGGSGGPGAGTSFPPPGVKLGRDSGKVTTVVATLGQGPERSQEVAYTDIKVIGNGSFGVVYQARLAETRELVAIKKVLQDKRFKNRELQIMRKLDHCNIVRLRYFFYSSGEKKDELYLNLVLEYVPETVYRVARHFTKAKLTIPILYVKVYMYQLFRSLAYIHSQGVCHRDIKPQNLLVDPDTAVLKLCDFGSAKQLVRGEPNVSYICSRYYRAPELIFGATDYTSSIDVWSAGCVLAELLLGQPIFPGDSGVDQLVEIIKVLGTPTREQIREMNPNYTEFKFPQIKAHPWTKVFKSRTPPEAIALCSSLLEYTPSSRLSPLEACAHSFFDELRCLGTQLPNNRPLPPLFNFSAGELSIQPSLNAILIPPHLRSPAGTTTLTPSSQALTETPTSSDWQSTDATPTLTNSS

Structure (SMILES)	Plasma Stability (Mouse, % remaining) [8, 16] [%]	Mouse Liver Microsomal Stability, % remaining ([9]; 1 μM, 60 minutes at 37° C.) [%]	Plasma Stability (Human, % remaining) [10, 17] [%]	fraction unbound at 5 h, 5 μM [11]	fraction unbound at 5 h, 5 μM [12]	Human Liver Microsomal Stability, % remaining ([13]; 1 μM, 60 minutes at 37° C.) [%]	solubility thermodynamic at 18 h [14] [µM]	also measured
CCC1(c2ccccc2)C2=C(CC(C)(C)CC2=O)Nc2ncsc21 (single isomer, unassigned) [Compound 1-E2, 9-Ethyl-6,6-dimethyl-9-phenyl-5,6,7,9-tetrahydrothiazolo[4,5-b]quinolin-8(4H)-one]								IC50 [1]: 0.19 µM; IC50 [2]: 0.037 µM; Papp A→B at 120 min, 5 μM [3]: 7.67 ×10⁻⁶ cm/s; Papp B→A at 120 min, 5 μM [3]: 24.4 ×10⁻⁶ cm/s; efflux ratio at 120 min, 5 μM ([3]; read-out: MDCK PERMEABILITY (MDR1-MDCK) Mean P. Ratio(B-A/A-B)): 3.2
Cn1cc(C2=C(c3coc4ccccc34)C(=O)NC2=O)c2cc(Br)ccc21 [BIP-135]								median survival of the mice [4]: prolong the median survival of the mice; SMN protein level [5]: elevate the SMN protein level; neuroprotection [6]: neuroprotective
[Li+] [Li^+, Lithium]								IC50 [7]: 2000 µM
CC[C@@]1(c2ccccc2)C2=C(CC(C)(C)CC2=O)Nc2ncsc21 [drawing 173]	100	5.6	100	0.049	0.074	6.6	17 (≈ 5.75 µg/mL)	
CC[C@@]1(c2cccc(F)c2)C2=C(CC(C)(C)CC2=O)Nc2ncsc21 [drawing 174]	96.0	3.9	99.2	0.029	0.043	2.4	100 (≈ 35.6 µg/mL)	
CC[C@@]1(c2cccc(C)c2)C2=C(CC(C)(C)CC2=O)Nc2ncsc21 [drawing 176]	97.8	8.2	98.9	0.019	0.045	0.7	75 (≈ 26.4 µg/mL)	
CC[C@@]1(c2ccccc2)C2=C(CC(C)(C)CC2=O)Nc2n[nH]cc21 [drawing 179]	95.3	93			0.212	95		solubility thermodynamic at 18 h [15]: 480 µM (≈ 154 µg/mL)
Cc1c[nH]c(-c2cnc(NCCNc3ccc(C#N)cn3)nc2-c2ccc(Cl)cc2Cl)n1 [drawing 180]				0.039	0.043			Plasma Stability (Mouse, % remaining) [8]: 97.0%; Mouse Liver Microsomal Stability, % remaining [9]: 4.0%; Plasma Stability (Human, % remaining) [10]: 100%; solubility thermodynamic at 18 h [15]: 116 µM (≈ 54 µg/mL); Human Liver Microsomal Stability, % remaining [13]: 3.0%
